US10294530B2, “Biomarker FOXF2 for gastric cancer” (The Chinese University of Hong Kong, priority 2016, dated 2019)

Test system: FOXF2 expression
Experiment: Demethylation treatment, FOXF2 expression by semi-quantitative PCR
Assay type: cell-based, human
Protocol: Semi-quantitative PCR was performed in a total volume of 20 μL reaction containing GeneAmp 1×PCR Buffer II (Applied Biosystems), 2.5 mM MgCl2, 200 μM each of dNTP, 200 nM each of primers, 0.4 U of AmpliTaq Gold DNA polymerase (Applied Biosystems) and 30˜50 ng cDNA. The PCR program started with an initial denaturation at 94° C. for 10 min, followed by 32-35 cycles (94° C. for 30 sec, annealing temperature for 30 sec, and 72° C. for 30 sec) of amplification, with a final extension at 72° C. for 10 min. The PCR bands were visualized under ultraviolet light and photographed. The expression of the target gene was normalized by the expression of house-keeping gene β-actin, which served as an internal control.
Cells were seeded at a density of 1×10^5/100-mm dishes and grew for 24 hours. Cells were then treated with 2 μM 5-aza-2′-deoxycytidine (“5-Aza”) (Sigma-Aldrich) for 5 days. The 5-Aza was replenished every day. The gene expression of FOXF2 was evaluated using semi-quantitative PCR.

Nc1ncn([C@H]2C[C@H](O)[C@@H](CO)O2)c(=O)n1 [5-Aza, 5-aza-2′-deoxycytidine]
FOXF2 expression (AGS, 2 μM 5-Aza for 5 days): restored
FOXF2 expression (MKN28, 2 μM 5-Aza for 5 days): restored
FOXF2 expression (MKN45, 2 μM 5-Aza for 5 days): restored
FOXF2 expression (MKN74): insufficient
FOXF2 expression (NCL-N87, 2 μM 5-Aza for 5 days): restored
FOXF2 expression (SNU719, 2 μM 5-Aza for 5 days): restored
